Data reported in publication PMC9857891, “Optimization and Molecular Mechanism of Novel α-Glucosidase Inhibitory Peptides Derived from Camellia Seed Cake through Enzymatic Hydrolysis” (Foods, 2023).
pIC50: −log10 of the molar value. Where a SMILES comes first, the peptide text is derived from it. Where no end group is shown, it is not given here.

How the values were obtained:
α-glucosidase [1] = assay: α-glucosidase inhibition assay in vitro (pNPG substrate); type: biochemical; settings: synthesized peptides; read-out: α-glucosidase Inhibitory Activity (IC50)
Method: (§1) The α-glucosidase inhibition activity was performed as described in the literature. In a 96-well enzyme plate, 40 μL of PBS buffer solution (pH 6.86, 0.1 M), 40 μL of sample solution, and 80 μL of α-glucosidase solution (0.2 U/mL) were added, mixed well, and reacted at 37 °C for 15 min. Next, 80 μL of 2.5 mM p-nitrophenyl-α-D-glucopyranoside (pNPG, 0.1 M, pH 6.8 in PBS) was added, mixed well, and reacted at 37 °C for 20 min. Finally, 150 μL of 0.2 M Na2CO3 solution was added to stop the reaction, which was then measured for absorbance values at 405 nm A1. Data were collected for three parallel experiments. (1) α-glucosidase inhibitory activity (%) = A0− (A 1− A2)/ A0 × 100% where A0 is the absorbance of an equal amount of PBS buffer in place of the sample; A2 is the absorbance of an equal amount of PBS buffer in place of the α-glucosidase solution and pNPG solution.

α-glucosidase [2] = assay: Simulated gastrointestinal digestion in vitro, residual α-glucosidase inhibitory activity; type: in vitro ADME; settings: 37 °C; for loss of α-glucosidase inhibitory activity after SGID: SGF 120 min then SIF 120 min; for loss of α-glucosidase inhibitory activity after simulated gastric digestion (SGD): SGF, 120 min
Method: as §1
The method of simulated gastrointestinal digestion (SGID) follows the previous method with slight modifications. Simulated gastric fluid (SGFs) and simulated intestinal fluid (SIFs) are both purchased from Shanghai Yuanye Biotechnology Co., Ltd., as previously mentioned. In brief, the synthesized peptide LLVLYYEY and LLLLPSYSEF was pre-dissolved to 4 mg/mL in pure water. LLVLYYEY and LLLLPSYSEF aqueous solution was mixed with SGFs (1:1, v/v) and digested at 37 °C for 120 min. SIFs (1:1, v/v) was then mixed and the mixture was incubated for 120 min. After 120 min of incubation, the pH was adjusted to 7 by NaOH (1M) to stop the simulated gastric digestion (SGD) phase; after 240 min of incubation the simulated intestinal digestion (SID) phase was stopped by a boiling water bath for 10 min.

pIC50 (α-glucosidase [1])	Molecule	loss of α-glucosidase inhibitory activity after SGID (α-glucosidase [2])	loss of α-glucosidase inhibitory activity after simulated gastric digestion (SGD) (α-glucosidase [2])
< 2.00	C[C@H](N)C(=O)N[C@H](C(=O)N[C@@H](CC(N)=O)C(=O)N1CCC[C@H]1C(=O)N1CCC[C@H]1C(=O)N[C@@H](CS)C(=O)N[C@@H](CS)C(=O)N[C@@H](CCC(N)=O)C(=O)N1CCC[C@H]1C(=O)O)[C@@H](C)O [ATNPPCCQP, Ala-Thr-Asn-Pro-Pro-Cys-Cys-Gln-Pro] (H-ATNPPCCQP-OH)		
2.36	CC(C)C[C@H](N)C(=O)N[C@@H](CS)C(=O)N[C@@H](CC(=O)O)C(=O)N[C@@H](CCC(N)=O)C(=O)N[C@@H](CS)C(=O)N1CCC[C@H]1C(=O)N1CCC[C@H]1C(=O)N[C@@H](Cc1c[nH]cn1)C(=O)N[C@@H](C)C(=O)O [LCDQCPPHA, Leu-Cys-Asp-Gln-Cys-Pro-Pro-His-Ala] (H-LCDQCPPHA-OH)		
	LLLLPSYSEF [LLLLPSYSEF, Leu-Leu-Leu-Leu-Pro-Ser-Tyr-Ser-Glu-Phe]	significant loss of activity	essentially no loss
	LLVLYYEY [LLVLYYEY, Leu-Leu-Val-Leu-Tyr-Tyr-Glu-Tyr]	significant loss of activity	essentially no loss
